A word on the IC50: it is the concentration needed to halve the response being measured. Low readings indicate inhibition by little substance, high ones a need for much substance.

The test is described as follows: Inhibition of HSP90.
Molecule `CCOC(=O)NCc1ccc(-n2cnnc2-c2cc(C(C)C)c(O)cc2O)cc1` showed an IC50 of 40 µM.

In turn, `Cc1nc(N)nc2c1/C(=N/O)C[C@@H](c1ccc(F)cc1-c1cccnc1)C2` gave a concentration for half-maximal inhibition (IC50) of 30 µM.

Regarding `Cc1ccccc1[C@H]1CCCN1C(=O)c1ccc(O)cc1O`, the half-maximal inhibitory concentration (IC50) came to 60 µM.

`Oc1ccc2c(-c3cc(Br)c(O)cc3O)noc2c1`: the IC50 was found to be 190 µM. This IC50 lies about 3.2-fold higher than the previous one.

The values above are taken from ChEMBL document CHEMBL1795326, “Pharmacophore based virtual screening, molecular docking studies to design potent heat shock protein 90 inhibitors” (Eur J Med Chem, 2011).
